Measurements published in patent US12691084B2, “Pharmaceutical composition for preventing or treating bone diseases” (INDUSTRY FOUNDATION OF CHONNAM NATIONAL UNIVERSITY, priority 2019, dated 2026).

Experiments:
[1] = Microsomal stability (M); type: in vitro ADME, mouse; settings: M of H/M; criterion >60%
Protocol: (§1) In order to analyze the drug metabolism of PMSA compound, ADME evaluation was requested to the Daegu-Gyeongbuk Advanced Medical industry Promotion Foundation (DGMIF). Metabolic stability of drugs using liver microsomes (microsomal stability), drug metabolism inhibitory ability by five CYP450 enzymes, plasma metabolism (plasma stability), plasma protein binding, and intestinal permeability of drugs (PAMPA, parallel artificial membrane permeability assay) were analyzed. […] Further, it was confirmed that the permeability resistance was excellent (see Table 3 below). On the other hand, for one of PMSA derivatives, that is, 2-(N-(3,5-dimethylphenyl)methylsulfinamido)-N-(2 (phenylthio)phenyl)propanamide (#25-D5), intestinal permeability of the drug (PAMPA) was not measured.

[2] = Plasma stability; type: in vitro ADME
Protocol: as §1

[3] = test system: mouse bone marrow cells; assay: Bone resorption assay on calcium phosphate coated plate; type: cell-based; settings: 6 days; for bone resorption ability: compared to Ctrl
Protocol: Bone resorption ability was confirmed using a bone resorption assay kit (Cosmo Rio, CSR-BRA). 2.5×10^4 mouse bone marrow cells per well were put into a 48-well plate coated with calcium phosphate, followed by treating the cells with PMSA to perform differentiation for 6 days. After 6 days, a fluorescence absorbance was measured with the culture medium to confirm the bone absorption ability. Further, decomposition degree of calcium phosphate was photographed a microscope to confirm the bone resorption ability. […] In FIG. 4, BMMs refer to monocytes that are not differentiated osteoclasts.
Further, the bone resorption ability was confirmed using a bone resorption assay kit (Cosmo Bio, CSR-BRA). 2.5×10^4 mouse bone marrow cells per well were put into a 48-well plate coated with calcium phosphate, and were differentiated for 6 days while being treated with PSTP-3,5-Me. After 6 days, the fluorescence absorbance was measured with the culture medium to confirm the bone absorption ability.

[4] = test system: monocytes isolated from mouse bone marrow treated with RANKL; assay: Osteoclast differentiation inhibition, TRAP staining and assay; type: cell-based; settings: 10 μM; RANKL; TRAP staining, Image J
Protocol: Macrophages were isolated from bone marrow of 8-week old C57BL/6J mice, and seeded on a 96-well plate in an amount of 1×10^4 cells per well, followed by treating the cells with osteoclast differentiation factors M-CSF and RANKL at 30 ng/ml and 50 ng/ml, respectively. At the same time, the compounds were used for treatment, followed by culturing the cells for 3 to 4 days. Thereafter, differentiation influence was evaluated through TRAP staining and cell counting. Specific experimental procedures and results are as follows.
The bone marrow of a 10-week-old female mouse was isolated from the hip bone, femur and tibia, and incubated in α-MEM medium (Gibco, 12561-056, 10% fetal bovine serum, 1% penicillin/streptomycin) containing macrophage colony stimulating factor (M-CSF, PeproTech, 315-02, 30 ng/ml) for […] so as to isolate only monocytes. The isolated monocytes were treated with receptor activator of nuclear factor kappa B ligand (RANKL, PeproTech, 315-11, 50 ng/ml) to induce osteoclast differentiation. When a morphology of fused multinuclear cells began to appear from day 3 after treatment with RANKL, the cells were differentiated into giant multinuclear cells for 4 to 6 days (see FIG. 1), and dead by cell apoptosis after 6 days.
During RANKL treatment, each PMSA compound was also used for treatment, followed by culturing the cells for 3 or 5 days to confirm the effects of inhibiting osteoclast differentiation.
1×10^4 monocytes isolated from mouse bone marrow were put into a 96-well plate and treated with RANKL and PMSA together to confirm the effect of each PMSA on osteoclast differentiation ability. Each PMSA was used for treatment by concentration. The activity of tartrate-resistant acid phosphatase (TRAP), which has increased expression during osteoclast differentiation, was confirmed using a TRAP activity assay kit (Cosmo Bio, PMC-AK04F-COS) (see FIG. 2).
Further, after staining, the multinuclear cells formed during osteoclast differentiation were observed under a microscope, and each well was photographed and a differentiation area ratio per total area was determined using Image J software. […] Specifically, at 10 μM concentration, cells were differentiated into osteoclasts by 30% when using #25 (PMSA-3-Ac), similarly, 74% using #25-C (PMSA-Ph), 63% using #25-N (PMSA-PhN), 41% using #25-PhO (PMSA-O), and only 1% using #25-D12 (PMSA-2-OMe-5-Cl), respectively. […]

[5] = molecular target: CYP2C9 (Homo sapiens, UniProt P11712); assay: CYP450 drug metabolism inhibition, 2C9; type: in vitro ADME; settings: criterion remaining activity >50%
Sequence of CYP2C9 (P11712 whole entry): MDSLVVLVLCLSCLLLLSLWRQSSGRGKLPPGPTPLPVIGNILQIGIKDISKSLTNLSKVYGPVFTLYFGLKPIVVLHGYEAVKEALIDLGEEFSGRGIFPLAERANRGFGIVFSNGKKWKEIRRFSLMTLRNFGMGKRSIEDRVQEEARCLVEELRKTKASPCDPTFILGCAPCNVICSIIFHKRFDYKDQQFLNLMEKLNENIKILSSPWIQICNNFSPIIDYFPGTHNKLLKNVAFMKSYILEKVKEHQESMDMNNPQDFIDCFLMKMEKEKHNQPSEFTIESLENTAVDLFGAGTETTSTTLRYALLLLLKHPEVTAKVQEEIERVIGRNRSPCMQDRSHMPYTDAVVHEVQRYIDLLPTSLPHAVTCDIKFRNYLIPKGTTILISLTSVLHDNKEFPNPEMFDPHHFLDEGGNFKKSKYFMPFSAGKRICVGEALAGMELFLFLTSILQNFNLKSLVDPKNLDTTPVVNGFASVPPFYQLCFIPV
Protocol: as §1

[6] = PAMPA, parallel artificial membrane permeability assay; type: in vitro ADME; settings: for Papp: PAMPA, criterion >40, read-out: PAMPA (>40) Pe; for permeability resistance: conclusion from ADME evaluation
Protocol: as §1

[7] = molecular target: CYP2D6 (Homo sapiens, UniProt P10635); assay: CYP450 drug metabolism inhibition, 2D6; type: in vitro ADME; settings: criterion remaining activity >50%
Sequence of CYP2D6 (P10635 whole entry): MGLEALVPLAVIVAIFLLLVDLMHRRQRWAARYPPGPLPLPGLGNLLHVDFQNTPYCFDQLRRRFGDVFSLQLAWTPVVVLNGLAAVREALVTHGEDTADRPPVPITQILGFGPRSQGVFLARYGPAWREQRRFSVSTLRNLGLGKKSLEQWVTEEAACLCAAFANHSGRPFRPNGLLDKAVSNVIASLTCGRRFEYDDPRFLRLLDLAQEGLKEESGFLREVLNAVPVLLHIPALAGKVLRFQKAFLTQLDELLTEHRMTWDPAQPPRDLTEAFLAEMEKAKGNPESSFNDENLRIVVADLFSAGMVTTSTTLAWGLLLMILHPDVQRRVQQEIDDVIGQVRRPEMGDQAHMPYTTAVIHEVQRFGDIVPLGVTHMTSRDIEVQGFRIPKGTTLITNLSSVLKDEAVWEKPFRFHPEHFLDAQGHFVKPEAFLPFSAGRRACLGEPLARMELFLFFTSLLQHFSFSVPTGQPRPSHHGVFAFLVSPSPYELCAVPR
Protocol: as §1

[8] = molecular target: T1, CYP1A2 (Homo sapiens, UniProt P05177); assay: CYP450 drug metabolism inhibition, 1A2; type: in vitro ADME; settings: criterion remaining activity >50%
T1 sequence (P05177 1-516): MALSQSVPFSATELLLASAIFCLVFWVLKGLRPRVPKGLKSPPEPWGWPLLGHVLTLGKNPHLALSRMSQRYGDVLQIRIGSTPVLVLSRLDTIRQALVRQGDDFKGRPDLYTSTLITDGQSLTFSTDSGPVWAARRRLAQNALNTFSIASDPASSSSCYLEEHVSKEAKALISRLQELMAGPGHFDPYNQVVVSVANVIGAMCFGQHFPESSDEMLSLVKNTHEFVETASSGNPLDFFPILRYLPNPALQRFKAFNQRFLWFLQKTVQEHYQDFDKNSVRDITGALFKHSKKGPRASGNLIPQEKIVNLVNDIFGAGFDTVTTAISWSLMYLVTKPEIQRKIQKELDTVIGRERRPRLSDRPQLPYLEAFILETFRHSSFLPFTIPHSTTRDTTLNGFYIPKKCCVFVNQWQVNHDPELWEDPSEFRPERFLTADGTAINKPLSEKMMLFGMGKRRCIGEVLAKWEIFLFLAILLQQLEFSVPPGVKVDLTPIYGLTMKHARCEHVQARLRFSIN
Protocol: as §1

[9] = molecular target: CYP3A4 (Homo sapiens, UniProt P08684); assay: CYP450 drug metabolism inhibition, 3A4; type: in vitro ADME; settings: criterion remaining activity >50%
Sequence of CYP3A4 (P08684 whole entry): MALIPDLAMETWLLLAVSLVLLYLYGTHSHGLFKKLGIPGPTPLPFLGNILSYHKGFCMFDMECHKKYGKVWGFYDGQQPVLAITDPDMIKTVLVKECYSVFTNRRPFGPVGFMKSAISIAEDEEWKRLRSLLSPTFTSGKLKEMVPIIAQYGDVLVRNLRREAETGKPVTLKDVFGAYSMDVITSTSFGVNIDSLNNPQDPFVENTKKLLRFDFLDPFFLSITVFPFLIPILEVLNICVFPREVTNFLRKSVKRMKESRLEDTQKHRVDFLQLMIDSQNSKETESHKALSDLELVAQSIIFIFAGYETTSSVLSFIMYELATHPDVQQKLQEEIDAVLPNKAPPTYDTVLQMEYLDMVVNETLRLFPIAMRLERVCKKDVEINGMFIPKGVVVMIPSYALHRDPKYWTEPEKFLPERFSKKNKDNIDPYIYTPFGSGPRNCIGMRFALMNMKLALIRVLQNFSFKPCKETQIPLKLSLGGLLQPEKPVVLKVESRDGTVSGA
Protocol: as §1

[10] = Microsomal stability (H); type: in vitro ADME, human; settings: H of H/M; criterion >60%
Protocol: as §1

[11] = test system: plasma proteins; assay: Plasma protein binding (PPB); type: in vitro ADME, Human; settings: for binding with plasma proteins: conclusion from ADME evaluation
Protocol: as §1

[12] = ADME evaluation (DGMIF), overall conclusion on toxicity; type: in vitro ADME; settings: conclusion from ADME evaluation
Protocol: as §1

[13] = molecular target: CYP2C19 (Homo sapiens, UniProt P33261); assay: CYP450 drug metabolism inhibition, 2C19; type: in vitro ADME; settings: criterion remaining activity >50%
Sequence of CYP2C19 (P33261 whole entry): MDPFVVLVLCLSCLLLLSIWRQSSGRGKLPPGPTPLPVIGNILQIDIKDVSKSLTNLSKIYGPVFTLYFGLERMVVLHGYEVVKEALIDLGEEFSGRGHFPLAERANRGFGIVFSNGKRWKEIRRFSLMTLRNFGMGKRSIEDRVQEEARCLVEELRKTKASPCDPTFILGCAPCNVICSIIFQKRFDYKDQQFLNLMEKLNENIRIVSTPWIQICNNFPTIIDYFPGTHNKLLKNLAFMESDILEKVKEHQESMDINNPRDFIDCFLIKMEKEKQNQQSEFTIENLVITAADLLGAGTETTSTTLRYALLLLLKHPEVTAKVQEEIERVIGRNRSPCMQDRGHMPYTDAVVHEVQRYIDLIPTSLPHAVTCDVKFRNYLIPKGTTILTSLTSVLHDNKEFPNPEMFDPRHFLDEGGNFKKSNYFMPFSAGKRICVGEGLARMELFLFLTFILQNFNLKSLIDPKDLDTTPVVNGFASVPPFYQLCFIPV
Protocol: as §1

| Microsomal stability (>60%) M [1] [%] | Plasma S Human 30 min (% Remaining) [2] | Plasma S Human 120 min (% Remaining) [2] | CYP 2C9 remaining activity [5] [%] | Papp [6] [×10⁻⁶ cm/s] | permeability resistance [6] | CYP 2D6 remaining activity [7] [%] | CYP 1A2 remaining activity [8] [%] | CYP 3A4 remaining activity [9] [%] | Microsomal stability (>60%) H [10] [%] | PPB Human (%, bound) [11] | binding with plasma proteins [11] | CYP 2C19 remaining activity [13] [%] | Compound | decrease in bone resorption ability ([3]; compared to differentiated osteoclasts (Ctrl) not treated, fluorescence absorbance) [%] | cells differentiated into osteoclasts (differentiation area ratio per total area) [4] [%] | toxicity [12] | bone resorption ability [3] |
| --- | --- | --- | --- | --- | --- | --- | --- | --- | --- | --- | --- | --- | --- | --- | --- | --- | --- |
| 3.7 | 100/100 % Remaining | 100/100 % Remaining | 67.2 | 76.6 | excellent | 18.3 | 96.8 | 72 | 50.6 | 97.9 %, bound | good | 6.9 | CC(=O)c1cccc(N(CC(=O)Nc2ccccc2-c2ccccc2)S(C)(=O)=O)c1 [#25-C, N-([1,1′-biphenyl]-2-yl)-2-(N-(3-acetylphenyl)methylsulfonamido)acetamide] | 13.4 | 74 | low toxicity |  |
| 4.0 | 100/100 % Remaining | 100/100 % Remaining | 47 | 47.2 | excellent | 12.6 | 81.6 | 43.1 | 3.3 | 97.9 %, bound | good | 9 | CC(=O)c1cccc(N(CC(=O)Nc2ccccc2Nc2ccccc2)S(C)(=O)=O)c1 [#25-N, 2-(N-(3-acetylphenyl)methylsulfonamido)-N-(2-(phenylamino)phenyl)acetamide] |  | 63 | low toxicity | slightly decreased |
| 3.1 | 94.3 % Remaining | 96.4 % Remaining | 49.7 | 66.2 | excellent | 53.1 | 100 | 70.1 | 12.5 | 98.4 %, bound | good | 10.4 | CC(=O)c1cccc(N(CC(=O)Nc2ccccc2Oc2ccccc2)S(C)(=O)=O)c1 [#25-O, 2-(N-(3-acetylphenyl)methylsulfonamido)-N-(2-phenoxyphenyl)acetamide] |  | 41 | low toxicity | slightly decreased |
